Converted amounts (≈) assume the structure as drawn. Values belong to the compound of their own block, whether it stands above or below them.
Tests used:
Assay in all cases: ≥ marks a high value that may be exact or a test limit, other limits are often not marked, values filed in µg/mL are converted to µM
[1] = system: Candida albicans TIMM 1768
[2] = system: Staphylococcus aureus KCTC 1621
[3] = system: Aspergillus fumigatus KCTC 4165
[4] = system: Escherichia coli KCTC 1682
[5] = system: Pseudomonas aeruginosa KCTC 1637
[6] = system: Streptococcus pyogenes KCTC 3096
[7] = system: Bacillus subtilis KCTC 1918
[8] = system: Salmonella typhimurium KCTC 1926
[9] = system: Klebsiella aerogenes ATCC 13048
[10] = system: Pseudomonas aeruginosa ATCC 9027
[11] = system: Staphylococcus epidermidis ATCC 12222
[12] = system: Escherichia coli ATCC 25922
[13] = system: Bacillus subtilis ATCC 23857
[14] = system: Staphylococcus aureus ATCC 29737
[15] = system: Candida albicans ATCC 10231
[16] = system: Streptococcus mutans UA140
[17] = system: Streptococcus mutans ATCC 25175
[18] = system: Streptococcus sanguinis ATCC 10556
[19] = system: Streptococcus mutans UA159
[20] = system: Streptococcus salivarius K12
[21] = system: Streptococcus gordonii DL1
[22] = system: Streptococcus mutans ATCC 104495
[23] = system: Streptococcus mutans comD
[24] = system: Streptococcus mutans T8
[25] = system: Streptococcus sanguinis NY101
[26] = system: Streptococcus gordonii ATCC 10558

MIC [1]: ≥ 50 µM
MIC [2]: 25 µM (≈ 54 µg/mL)
MIC [3]: 25 µM (≈ 54 µg/mL)
MIC [4]: 25 µM (≈ 54 µg/mL)
MIC [5]: 6.25 µM (≈ 13.5 µg/mL)
MIC [6]: 25 µM (≈ 54 µg/mL)
MIC [7]: 25 µM (≈ 54 µg/mL)
MIC [8]: 12.5 µM (≈ 27 µg/mL)
Compound: CC[C@H](C)[C@H](NC(=O)[C@H](CCCCN)NC(=O)[C@H](CCCCN)NC(=O)[C@H](CC(C)C)NC(=O)[C@H](CCCCN)NC(=O)[C@H](CCC(=O)O)NC(=O)CN)C(=O)NCC(=O)N[C@@H](CCC(N)=O)C(=O)N[C@@H](CCCCN)C(=O)N[C@H](C(=O)N[C@@H](CCCCN)C(=O)N[C@@H](CCCCN)C(=O)N[C@@H](Cc1ccccc1)C(=O)N[C@@H](Cc1ccccc1)C(=O)N[C@@H](CCC(N)=O)C(=O)N[C@@H](CCCCN)C(=O)N[C@@H](CC(C)C)C(=O)O)[C@@H](C)CC [GEKLKKIGQKIKKFFQKL]

MIC [9]: ≥ 341 µM
MIC [10]: 43 µM (≈ 63 µg/mL)
MIC [11]: ≥ 43 µM
MIC [12]: > 341 µM
MIC [13]: 21.4 µM (≈ 31.3 µg/mL)
MIC [14]: ≥ 341 µM
MIC [15]: 85.3 µM (≈ 125 µg/mL)
Compound: CC(C)C[C@H](NC(=O)[C@H](CC(C)C)NC(=O)[C@H](CCCCN)NC(=O)[C@H](CCCCN)NC(=O)[C@H](CC(C)C)NC(=O)[C@H](CC(C)C)NC(=O)[C@H](CCCCN)NC(=O)[C@H](CCCCN)NC(=O)[C@H](CC(C)C)NC(=O)[C@@H](N)CC(C)C)C(=O)N[C@@H](CCCCN)C(=O)N[C@@H](CCCCN)C(N)=O [LLKKLLKKLLKK]

MIC [16]: ≥ 64 µM
MIC [17]: ≥ 60 µM
MIC [18]: ≥ 64 µM
MIC [19]: ≥ 60 µM
MIC [20]: ≥ 64 µM
MIC [21]: ≥ 60 µM
MIC [22]: ≥ 64 µM
MIC [23]: ≥ 60 µM
MIC [24]: ≥ 60 µM
MIC [25]: ≥ 60 µM
MIC [26]: ≥ 64 µM
Compound: CC(C)C[C@H](NC(=O)[C@H](C)NC(=O)[C@H](CCC(N)=O)NC(=O)[C@@H](NC(=O)[C@H](Cc1ccccc1)NC(=O)[C@H](CO)NC(=O)[C@H](CCCN=C(N)N)NC(=O)[C@H](CC(N)=O)NC(=O)[C@H](Cc1ccccc1)NC(=O)[C@H](CC(C)C)NC(=O)[C@H](CCCN=C(N)N)NC(=O)[C@H](Cc1ccccc1)NC(=O)[C@H](Cc1ccccc1)NC(=O)[C@@H](N)[C@@H](C)O)[C@@H](C)O)C(=O)NCC(=O)N[C@@H](CCCCN)C(=O)O [TFFRLFNRSFTQALGK]
